Test results from ChEMBL document CHEMBL3352076, “Synthesis of novel triazole-linked mefloquine derivatives: biological evaluation against Plasmodium falciparum” (Bioorg Med Chem Lett, 2014).
pIC50: −log10 of the molar value.

What follows are molecules tested on Plasmodium falciparum (assay: Antimalarial activity against chloroquine-sensitive Plasmodium falciparum NF54).
Format: functional, organism-based
With FC(F)(F)c1cc(-n2cc(CN3CCN(Cc4ccccc4)CC3)nn2)c2cccc(C(F)(F)F)c2n1 the pIC50 was 4.59. In the case of FC(F)(F)c1cc(-n2cc(CN3CCN(Cc4ccncc4)CC3)nn2)c2cccc(C(F)(F)F)c2n1, the pIC50 was 4.97. In the case of FC(F)(F)c1cc(-n2cc(CN3CCN(Cc4c[nH]c5ccccc45)CC3)nn2)c2cccc(C(F)(F)F)c2n1, the pIC50 was 5.89. In the case of FC(F)(F)c1cc(-n2cc(CN3CCN(C4CCCCC4)CC3)nn2)c2cccc(C(F)(F)F)c2n1, the pIC50 was 4.50. FC(F)(F)c1cc(-n2cc(CN3CCN(C4C5CC6CC(C5)CC4C6)CC3)nn2)c2cccc(C(F)(F)F)c2n1 (stereo unspecified) showed a pIC50 of 4.85. In the case of FC(F)(F)c1cc(-n2cc(CN(C3CCCCC3)C3CCCCC3)nn2)c2cccc(C(F)(F)F)c2n1, the pIC50 was 5.49. Molecule FC(F)(F)c1cc(-n2cc(CN(Cc3ccccc3)Cc3ccccc3)nn2)c2cccc(C(F)(F)F)c2n1 has a pIC50 of 5.04. In the case of CC(C)N(Cc1cn(-c2cc(C(F)(F)F)nc3c(C(F)(F)F)cccc23)nn1)C(C)C, the pIC50 was 5.32. Work on FC(F)(F)c1cc(-n2cc(CNC3C4CC5CC(C4)CC3C5)nn2)c2cccc(C(F)(F)F)c2n1 (stereo unspecified) yielded a pIC50 of 6.00. For CC(C)(C)NCc1cn(-c2cc(C(F)(F)F)nc3c(C(F)(F)F)cccc23)nn1, the pIC50 was 5.55. O[C@@H](c1cc(C(F)(F)F)nc2c(C(F)(F)F)cccc12)[C@H]1CCCCN1 [(S,R)-MEFLOQUINE] gave a pIC50 of 4.70.
